According to patent US20240343761A1, “APELINERGIC MACROCYCLES AND USES THEREOF” (priority 2021, published 2024):
Numbered stars: 1 amine (or outer) side, 2 acyl side, 3 side chain; on linkers, the order of the positions; unused ones are H or OH. Bridge positions count the residues as written; N and C are the ends. Square brackets hold non-standard residues; d marks the D form. Peptide text beside a SMILES is read from it. * marks the point of attachment. X5 = O=C([C@H](Cc1cc(C2CCCC2)c(OCc2ccccc2)c(C2CCCC2)c1)N[*:1])[*:2]; X1 = O=C([C@H](Cc1ccc(OCc2ccccc2)c(C2CCCC2)c1)N[*:1])[*:2]; Benzoyl(4-Br) = O=C(c1ccc(Br)cc1)*; hArg = N=C(N)NCCCC[C@H](N)C(=O)O; pGlu = O=C1CC[C@@H](C(=O)O)N1; Nle = CCCC[C@H](N)C(=O)O; Bn = c1ccc(C*)cc1

Key:
[1] = molecular target: T1, hAPJ receptor (Homo sapiens, UniProt P35414); experiment: BRET-based Gαi1 activation assay in HEK293 cells; assay type: cell-based
T1 construct: expressed in transfected cells; host or cells: HEK293, transient transfection with PEI
T1 sequence (P35414 1-380): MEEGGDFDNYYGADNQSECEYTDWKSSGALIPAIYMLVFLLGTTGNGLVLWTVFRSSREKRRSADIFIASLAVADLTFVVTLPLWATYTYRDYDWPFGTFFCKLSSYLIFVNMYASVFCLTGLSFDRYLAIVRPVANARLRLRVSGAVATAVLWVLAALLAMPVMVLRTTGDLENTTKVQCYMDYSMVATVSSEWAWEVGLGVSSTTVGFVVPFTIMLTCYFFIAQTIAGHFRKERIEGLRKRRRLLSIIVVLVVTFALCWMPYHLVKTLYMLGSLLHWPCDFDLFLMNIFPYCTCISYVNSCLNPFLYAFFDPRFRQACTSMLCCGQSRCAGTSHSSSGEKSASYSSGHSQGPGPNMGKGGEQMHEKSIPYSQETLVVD
Experimental: (§1) HEK293 cells were cultivated in high glucose DMEM medium having 10% FBS, 100 U/mL penicillin/streptomycin, 2 mM glutamine, and 20 mM HEPES at 37° C. in T175 flasks under humidified chamber at 5% CO2. […] Cells were then washed with phosphate-buffered saline (PBS) and 90 μL Hanks' balanced salt solution was added in each well. Then, cells were stimulated with analogs at concentrations ranging from 10^−5 M to 10^−11 M for 5 min at 37° C. (Gαi1) or for 30 min at room temperature (β-arrestin2). After stimulation, 5 μM of coelanterazine 400A was added to each well and the plate was read using the BRET^2 filter set of a GeniosPro plate reader (Tecan, Austria). The BRET ratio was determined as GFP10em/RlucIIem. Data were plotted and EC50 values were determined using GraphPad Prism 8. Each data point represents the mean±SEM of at least three different experiments each done in triplicate.

[2] = molecular target: T1, hAPJ receptor; experiment: BRET-based β-arrestin2 recruitment assay in HEK293 cells; assay type: cell-based
Experimental: as §1

[3] = HEK293, Table V, read-out: Gαi1 Emax
[4] = HEK293, Table V, read-out: ß-arr2 Emax

Structure (SMILES): CCCC[C@H](NC(=O)[C@@H]1CCCN1C(=O)CNC(=O)[C@H](CCCCN)NC(=O)[C@@H]1CCN(S(=O)(=O)c2ccccc2[N+](=O)[O-])CC=CC[C@H](NC(=O)[C@H](CCCNC(=N)N)NC(=O)[C@@H]2CCC(=O)N2)C(=O)N[C@@H](CCCNC(=N)N)C(=O)N[C@@H](CC(C)C)C(=O)N[C@@H](CO)C(=O)N1)C(=O)N1CCC[C@H]1C(=O)N[C@@H](Cc1ccccc1)C(=O)O [Compound 16, Pyr-R-c[X-R-L-S-Alnb]c-K-G-P-Nle-P-F]
- Emax ([1]; HEK293, read-out: Gαi1 Emax): 102%
- Emax ([2]; HEK293, read-out: ß-arr2 Emax): 98%

Structure (SMILES): CCCC[C@H](NC(=O)[C@@H]1CCCN1C(=O)CNC(=O)[C@H](CCCCN)NC(=O)[C@@H]1CCNCC=CC[C@H](NC(=O)[C@H](CCCNC(=N)N)NC(=O)[C@@H]2CCC(=O)N2)C(=O)N[C@@H](CCCNC(=N)N)C(=O)N[C@@H](CC(C)C)C(=O)N[C@@H](CO)C(=O)N1)C(=O)N1CCC[C@H]1C(=O)N[C@@H](Cc1ccccc1)C(=O)O [Compound 18, Pyr-R-c[X-R-L-S-Alb]c-K-G-P-Nle-P-F]
- Emax [1, 3]: 100%
- Emax [2, 4]: 86%

Structure (SMILES): CCCC[C@H](NC(=O)[C@@H]1CCCN1C(=O)CNC(=O)[C@H](CCCCN)NC(=O)[C@@H]1CCN(C)CC=CC[C@H](NC(=O)[C@H](CCCNC(=N)N)NC(=O)[C@@H]2CCC(=O)N2)C(=O)N[C@@H](CCCNC(=N)N)C(=O)N[C@@H](CC(C)C)C(=O)N[C@@H](CO)C(=O)N1)C(=O)N1CCC[C@H]1C(=O)N[C@@H](Cc1ccccc1)C(=O)O [Compound 19, Pyr-R-c[X-R-L-S-Almb]c-K-G-P-Nle-P-F]
- Emax [1, 3]: 102%
- Emax [2, 4]: 90%

Structure (SMILES): CCCC[C@H](NC(=O)[C@@H]1CCCN1C(=O)CNC(=O)[C@H](CCCCN)NC(=O)[C@@H]1CC=CC[C@H](NC(=N)N)C(=O)N[C@@H](CCCNC(=N)N)C(=O)N[C@@H](CC(C)C)C(=O)N[C@@H](CO)C(=O)N1)C(=O)N1CCC[C@H]1C(=O)N[C@@H](Cc1ccccc1)C(=O)O [Compound 23, Guanidine-c[X-R-L-S-X]c-K-G-P-Nle-P-F]
- Emax [1, 3]: 103%
- Emax [2, 4]: 92%

Structure (SMILES): CCCC[C@H](NC(=O)[C@@H]1CCCN1C(=O)CNC(=O)[C@H](CCCCN)NC(=O)[C@@H]1CCN(S(=O)(=O)c2ccccc2[N+](=O)[O-])CC=CC[C@H](N)C(=O)N[C@@H](CCCNC(=N)N)C(=O)N[C@@H](CC(C)C)C(=O)N[C@@H](CO)C(=O)N1)C(=O)N1CCC[C@H]1C(=O)N[C@@H](Cc1ccccc1)C(=O)O [Compound 28, NH2-c[X-R-L-S-Alnb]c-K-G-P-Nle-P-F]
- Emax [1, 3]: 106%
- Emax [2, 4]: 82%

Structure (SMILES): CC(C)C[C@@H]1NC(=O)[C@H](CCCNC(=N)N)NC(=O)[C@@H](N)CC=CC[C@@H](C(=O)N[C@@H](CCCCN)C(=O)NCC(=O)N2CCC[C@H]2C(=O)N[C@H](Cc2ccc(OCc3ccccc3)cc2)C(=O)O)NC(=O)[C@H](CO)NC1=O [Compound 44, NH2-c[X-R-L-S-X]c-K-G-P-(D-TyrOBn)]
- Emax [1, 3]: 104%
- Emax [2, 4]: 78%

Structure (SMILES): CC(C)C[C@@H]1NC(=O)[C@H](CCCNC(=N)N)NC(=O)[C@@H](N)CC=CC[C@@H](C(=O)N[C@@H](CCCCN)C(=O)NCC(=O)N2CCC[C@H]2C(=O)N[C@H](Cc2ccc(O)cc2)C(=O)O)NC(=O)[C@H](CO)NC1=O [Compound 45, NH2-c[X-R-L-S-X]c-K-G-P-(D-Tyr)]
- Emax [1, 3]: 100%
- Emax [2, 4]: 54%

Structure (SMILES): CCCC[C@H](NC(=O)[C@@H]1CCCN1C(=O)[C@@H]1CCCCNC(=O)CC[C@H](NC(=O)[C@H](CC(C)C)NC(=O)[C@H](CCCNC(=N)N)NC(=O)[C@@H]2CCCN2C(=O)[C@H](CCCNC(=N)N)NC(=O)[C@H](CCC(N)=O)NC(=O)[C@H](CCCNC(=N)N)NC(=O)[C@H](CCCNC(=N)N)NC(=O)[C@H](Cc2ccccc2)NC(=O)[C@H](CCCCN)NC(C)=O)C(=O)N[C@@H](Cc2c[nH]cn2)C(=O)N[C@@H](CCCCN)C(=O)N1)C(=O)N1CCC[C@H]1C(=O)N[C@@H](Cc1ccc(OCc2ccccc2)c(C2CCCC2)c1)C(=O)O [Compound 63, Ac-K-F-R-R-Q-R-P-R-L-[E-H-K-K]-P-Nle-P-cypTyrOBn] (Ac-KFRRQRPRLEHKKP[Nle]P[X1]-OH; lactam 10-13)
- EC50 [1]: 5.48 nM
- EC50 [2]: 63.6 nM

Structure (SMILES): CCCC[C@H](NC(=O)[C@@H]1CCCN1C(=O)[C@@H]1CCCCNC(=O)CC[C@H](NC(=O)[C@H](CC(C)C)NC(=O)[C@H](CCCNC(=N)N)NC(=O)[C@@H]2CCCN2C(=O)[C@H](CCCNC(=N)N)NC(=O)[C@H](CCC(N)=O)NC(=O)[C@H](CCCNC(=N)N)NC(=O)[C@H](CCCNC(=N)N)NC(=O)[C@H](Cc2ccccc2)NC(=O)[C@H](CCCCN)NC(C)=O)C(=O)N[C@@H](Cc2c[nH]cn2)C(=O)N[C@@H](CCCCN)C(=O)N1)C(=O)N1CCC[C@H]1C(=O)N[C@@H](Cc1cc(C2CCCC2)c(OCc2ccccc2)c(C2CCCC2)c1)C(=O)O [Compound 65, Ac-K-F-R-R-Q-R-P-R-L-[E-H-K-K]-P-Nle-P-dcypTyrOBn] (Ac-KFRRQRPRLEHKKP[Nle]P[X5]-OH; lactam 10-13)
- EC50 [2]: > 10000 nM

Structure (SMILES): CCCC[C@H](NC(=O)[C@@H]1CCCN1C(=O)[C@@H]1CCCCNC(=O)CC[C@H](NC(=O)[C@H](CC(C)C)NC(=O)[C@H](CCCNC(=N)N)NC(=O)[C@@H]2CCCN2C(=O)[C@H](CCCNC(=N)N)NC(=O)[C@H](CCC(N)=O)NC(=O)[C@H](CCCNC(=N)N)NC(=O)[C@H](CCCNC(=N)N)NC(=O)[C@H](Cc2ccccc2)NC(=O)[C@H](CCCCN)NC(C)=O)C(=O)N[C@@H](Cc2c[nH]cn2)C(=O)N[C@@H](CCCCN)C(=O)N1)C(=O)N1CCC[C@H]1C(=O)N[C@@H](Cc1ccc(OCc2ccccc2)cc1)C(=O)O [Compound 66, Ac-K-F-R-R-Q-R-P-R-L-[E-H-K-K]-P-Nle-P-TyrOBn] (Ac-KFRRQRPRLEHKKP[Nle]PY(Bn)-OH; lactam 10-13)
- EC50 [2]: 334 nM

Structure (SMILES): CCCC[C@H](NC(=O)[C@@H]1CCC(=O)NCCCC[C@H](N)C(=O)N[C@@H](CCCNC(=N)N)C(=O)N[C@@H](CCCNC(=N)N)C(=O)N1)C(=O)N1CCC[C@H]1C(=O)N[C@@H](CC(C)C)C(=O)N[C@@H](Cc1c[nH]cn1)C(=O)N[C@@H](CO)C(=O)N[C@@H](CCCNC(=N)N)C(=O)N[C@H](C(=O)N1CCC[C@H]1C(=O)N[C@@H](Cc1ccccc1)C(=O)N1CCC[C@H]1C(=O)O)C(C)C [Compound 72, c[K-R-R-E]-Nle-P-L-H-S-R-V-P-F-P] (H-KRRE[Nle]PLHSRVPFP-OH; lactam 1-4)
- EC50 [1]: 1.7 ± 0.4 nM
- EC50 [2]: 47 ± 2 nM

Structure (SMILES): CCCC[C@@H]1NC(=O)[C@@H](NC(=O)[C@H](CCCNC(=N)N)NC(=O)[C@H](CCCNC(=N)N)NC(=O)[C@@H]2CCC(=O)N2)CCC(=O)NCCCC[C@@H](C(=O)N[C@@H](Cc2c[nH]cn2)C(=O)N[C@@H](CO)C(=O)N[C@@H](CCCNC(=N)N)C(=O)N[C@H](C(=O)N2CCC[C@H]2C(=O)N[C@@H](Cc2ccccc2)C(=O)N2CCC[C@H]2C(=O)O)C(C)C)NC(=O)[C@@H]2CCCN2C1=O [Compound 75, Pyr-R-R-c[E-Nle-P-K]-H-S-R-V-P-F-P] ([pGlu]RRE[Nle]PKHSRVPFP-OH; lactam 4-7)
- EC50 [2]: 2020 ± 479 nM

Structure (SMILES): CC(C)C[C@@H]1NC(=O)[C@@H]2CCCN2C(=O)[C@@H](NC(=O)[C@H](CO)NC(=O)[C@H](CCCNC(=N)N)NC(=O)[C@H](CCCNC(=N)N)NC(=O)[C@@H]2CCC(=O)N2)CCC(=O)NCCCC[C@@H](C(=O)N[C@@H](CCCNC(=N)N)C(=O)N[C@H](C(=O)N2CCC[C@H]2C(=O)N[C@@H](Cc2ccccc2)C(=O)N2CCC[C@H]2C(=O)O)C(C)C)NC(=O)[C@H](Cc2c[nH]cn2)NC1=O [Compound 77, Pyr-R-R-S-c[E-P-L-H-K]-R-V-P-F-P]
- EC50 [2]: 247 ± 62 nM

Structure (SMILES): CC(C)C[C@@H]1NC(=O)[C@@H]2CCCN2C(=O)[C@@H](NC(=O)[C@H](CO)NC(=O)[C@H](CCCNC(=N)N)NC(=O)[C@H](CCCNC(=N)N)NC(=O)c2ccc(Br)cc2)CCC(=O)NCCCC[C@@H](C(=O)N[C@@H](CCCNC(=N)N)C(=O)N[C@H](C(=O)N2CCC[C@H]2C(=O)N[C@@H](Cc2ccccc2)C(=O)N2CCC[C@H]2C(=O)O)C(C)C)NC(=O)[C@H](Cc2c[nH]cn2)NC1=O [Compound 89, 4BrBz-R-R-S-[E-P-L-H-K]-R-V-P-F-P] ({Benzoyl(4-Br)}-RRSEPLHKRVPFP-OH; lactam 4-8)
- EC50 [2]: 50 ± 4 nM

Structure (SMILES): CC(C)C[C@@H]1NC(=O)[C@@H]2CCCN2C(=O)[C@@H](NC(=O)[C@H](CO)NC(=O)[C@H](CCCNC(=N)N)NC(=O)[C@H](CCCCNC(=N)N)NC(=O)[C@@H]2CCC(=O)N2)CCC(=O)NCCCC[C@@H](C(=O)N[C@@H](CCCNC(=N)N)C(=O)N[C@H](C(=O)N2CCC[C@H]2C(=O)N[C@@H](Cc2ccccc2)C(=O)N2CCC[C@H]2C(=O)O)C(C)C)NC(=O)[C@H](Cc2c[nH]cn2)NC1=O [Compound 90, Pyr-hR-R-S-[E-P-L-H-K]-R-V-P-F-P]
- EC50 [2]: 394 ± 47 nM

Structure (SMILES): CC(C)C[C@@H]1NC(=O)[C@@H]2CCCN2C(=O)[C@@H](NC(=O)[C@H](CO)NC(=O)[C@H](CCCCNC(=N)N)NC(=O)[C@H](CCCNC(=N)N)NC(=O)[C@@H]2CCC(=O)N2)CCC(=O)NCCCC[C@@H](C(=O)N[C@@H](CCCNC(=N)N)C(=O)N[C@H](C(=O)N2CCC[C@H]2C(=O)N[C@@H](Cc2ccccc2)C(=O)N2CCC[C@H]2C(=O)O)C(C)C)NC(=O)[C@H](Cc2c[nH]cn2)NC1=O [Compound 91, Pyr-R-hR-S-[E-P-L-H-K]-R-V-P-F-P] ([pGlu]R[hArg]SEPLHKRVPFP-OH; lactam 5-9)
- EC50 [1]: 4.3 ± 1.1 nM
- EC50 [2]: 173 ± 20 nM
